Reference: patent publication US20140248218A1, “ROS-SENSITIVE FLUORESCENT PROBES” (The Regents of the University of California, priority 2013, published 2014)

What was measured:
[1] = Solubility in aqueous buffer; format: physicochemical; conditions: ~1% DMSO (by volume), micromolar concentrations
Excerpt: The corresponding control compound lacking the boronic ester trigger was also synthesized for evaluation (FIG. 3, CBn). Both CBBE and FBBBE were quite soluble in aqueous buffer, using only ˜1% DMSO (by volume) when preparing samples at micromolar concentrations.

[2] = Fluorescence response of the probes to H2O2 (luminescence spectroscopy, fluorescence turn-on); format: physicochemical; conditions: for increase in fluorescence in response to excess H2O2 (fluorescence turn-on): 1 μM probe, 50 mM HEPES pH 7.5, H2O2 300 eq (300 μM), ratio of integrated final and initial emission; for change of emission on treatment with H2O2: 50 mM HEPES pH 7.5; for relation of relative emission to H2O2 concentration: 15 min incubation with H2O2, integrated emission
Description: Fluorescence emission spectra were recorded with a Perkin-Elmer LS-55 fluorescence spectrometer. To a 2.0 mL solution of probe of varying concentrations in HEPES buffer (50 mM, pH 7.5) was added H2O2 in HEPES to monitor fluorescence turn-on. Spectra were monitored over time at room temperature with quartz cuvettes.
To quantitate the fluorescence turn-on, a sample of each probe (1 μM in 50 mM HEPES pH 7.5) was prepared. An excess of H2O2 (300 eq, 300 μM) was added to the latent fluorophore and spectra were recorded until no increase in fluorescence intensity was observed, signifying a complete reaction. The collected initial and final emission spectrum were integrated, and the ratio reports the fluorescence turn on.
FBBBE and CBBE were evaluated for H2O2 sensitivity under simulated physiological conditions (50 mM HEPES, pH 7.5). For FBBBE, the installation of the benzyl protecting group forces the compound to remain in the closed lactone form, rendering FBBBE (and FBn) nonfluorescent. […] Along with the observed fluorescence increase, the absorption spectrum of FBBBE considerably changed upon H2O2 addition with a large increase in the visible absorption band (λmax=494 nm). The final spectrum recorded was identical to that of an authentic sample of fluorescein, providing additional proof that the probe was undergoing complete deprotection to the desired product (FIG. 7). […] FBBBE was incubated with different concentrations of H2O2 for 15 min and then the emission spectrum was collected.
The coumarin-based compound, CBBE, was nonfluorescent in the absence of H2O2. […] (FIG. 12).
(§1) Additional studies were performed to quantify the fluorescence turn-on for each probe to directly compare the sensitivity to H2O2. […] To determine the sensitivity of these probes in a more quantitative fashion, pseudo first-order kinetic measurements were performed using UV-Vis absorption spectroscopy. The observed rate constants for FBBBE and CBBE activation by H2O2 were kobs=3.1×10-5 s-1 and kobs=4.6×10-3 s-1, respectively. It was determined that the deprotection of CBBE was much faster than FBBBE. This may be likely due to the fact that FBBBE contains two boronic ester triggers that are required for complete release of the fluorophore. Recently, it has been shown that boronic ester based probes can be sensitive to other biologically relevant ROS, such as hypochlorite (—OCl) and peroxynitrite (—ONOO).^[26]

mouse spinal cord = assay: Confocal fluorescence imaging of H2O2 in mouse spinal cord tissue sections (ex vivo); conditions: 50 μM probe 1 h
Description: (§2) 3-4 week old female C57BL/6J mice were purchased from Jackson Laboratory (Bar Harbor, Me.). Mice were sacrificed and perfused with sterile PBS. The brain and spinal cord were harvested and imbedded in Tissue-Tek® OCT Compound (Sakura Finetek USA, Torrance, Calif.) and frozen in dry ice before storage at −80° C. All animal studies were reviewed and approved by the University of California, San Diego Institutional Animal Care and Use Committee (La Jolla, Calif.).
For confocal microscopy, the frozen tissue was cut into 10-μm sections on a Leica cryomicrotome and mounted on slides. Tissue sections were fixed in ice-cold 95% ethanol for 15 min and rehydrated in PBS for 5 min at room temperature in a humidity chamber. Tissue sections were either incubated with PBS or 100 μM H2O2 for 1 h at room temperature in a humidity chamber, followed by a 1 h incubation with either 50 μM probe (FBBBE) or 50 μM control (FBn) and a 10 min nuclear stain (DAPI, 4′,6-diamidino-2-phenylindole). The sections were rinsed in PBS and hydrated in water. […]
To further investigate whether FBBBE is activated by truly endogenous levels of H2O2, the probe was evaluated in the spinal cord. […] The lack of fluorescence signal from the H2O2-treated samples may be due to an inability of FBBBE to penetrate the spinal cord tissues, which is then subsequently washed away before the image is taken.

RAW 264.7 cells = assay: Confocal fluorescence imaging of H2O2 in RAW 264.7 macrophages; format: cell-based, Murine; conditions: for fluorescence in cells treated with PBS, LPS or H2O2: 50 μM compound 1 h, fixed RAW 264.7 cells
Description: RAW 264.7 macrophages were grown in DMEM supplemented with 10% heat-inactivated fetal bovine serum, 2 mM L-glutamine, 100 μg/mL penicillin, and 100 μg/mL streptomycin (Life Technologies, Carlsbad, Calif.). For confocal microscopy, the RAW 264.7 cells were seeded at 250,000 in glass bottom 35 mm dishes (MatTek Corporation, Ashland, Mass.) and post-adhering (5 h), some dishes were treated with 1 μg/mL of LPS (Sigma-Aldrich, St. Louis, Mo.) for 24 h. Other dishes were treated the next day after plating with either 100 μM H2O2 for 1 h or PBS for 1 h. Cells were washed twice with PBS and fixed in ice-cold 95% ethanol for 15 min. Cells were twice rinsed with PBS and incubated with either 50 μM probe (FBBBE) or 50 μM control (FBn) for 1 h at room temperature. Cells were washed twice with PBS and coverslips were mounted over cells using Aqua Mount (Thermo Scientific, Waltham, Mass.). Confocal images were obtained at 80× magnification on an Olympus FV1000 confocal laser scanning microscope. Images were processed using ImageJ software (NIH).
FBBBE was examined for H2O2 detection in biological samples via confocal microscopy. Murine macrophage RAW 264.7 cells were treated with PBS buffer (unstimulated cells), lipopolysaccharide (LPS, stimulated cells), or with exogenous H2O2, followed by incubation with either FBBBE (FIG. 5a-c) or FBn (FIG. 5d-f). The inflammatory effects of LPS in macrophages are well established and result in a burst of reactive oxygen species and reactive nitrogen intermediates among other inflammatory signatures.^[27] […] The cells are washed and fixed prior to incubating with the probe.

[3] = Fluorescent response of probe to hypochlorite compared with H2O2; format: physicochemical; conditions: 1 μM probe, 100 μM ROS, 50 mM HEPES pH 7.5, 25° C.
Description: FIG. 16. Histograms of fluorescent responses of 1 μM FBBBE to hydrogen peroxide (H2O2) and hypochlorite (OCl^−): (Data shown are for 100 μM of each ROS) hydrogen peroxide and hypochlorite were delivered from 30% and 5% aqueous solutions, respectively and spectra were acquired in 50 mM HEPES (pH 7.5) wherein all data were obtained after incubation with the appropriate ROS at 25° C.; the collected emission was integrated between […] (λex=480 nm), and bars represent relative responses (left to right) at 5 (white), 15 (light gray), 30 (gray), 45 (dark gray), and 60 min (black) after addition of ROS.
as §1, with “Recently, it has been shown that boronic ester based probes can be sensitive to other biologically relevant ROS, such as hypochlorite (—OCl) and peroxynitrite (—ONOO).^[26]” left out

mouse brain = assay: Confocal fluorescence imaging of H2O2 in mouse brain tissue sections (ex vivo); conditions: for fluorescence turn-on in brain tissue: 50 μM compound 1 h, sections incubated with PBS or 100 μM H2O2
Description: as §2
For confocal microscopy, the frozen tissue was cut into 10-μm sections on a Leica cryomicrotome and mounted on slides. Tissue sections were fixed in ice-cold 95% ethanol for 15 min and rehydrated in PBS for 5 min at room temperature in a humidity chamber. Tissue sections were either incubated with PBS or 100 μM H2O2 for 1 h at room temperature in a humidity chamber, followed by a 1 h incubation with either 50 μM probe (FBBBE) or 50 μM control (FBn) and a 10 min nuclear stain (DAPI, 4′,6-diamidino-2-phenylindole). The sections were rinsed in PBS and hydrated in water. Coverslips were mounted using Aqua Mount (Thermo Scientific, Waltham, Mass.). Confocal images were obtained at 40× or 80× magnification on an Olympus FV1000 confocal laser scanning microscope. Images were processed using ImageJ software.
Cellular studies were extended to a more physiologically relevant model for H2O2 detection. H2O2 is particularly active in the brain and neuronal tissue, triggered by the metabolism of neurotransmitters.^[28] The brain and spinal cord from 3-4 week old female C57BL/6J mice were excised, frozen in OCT medium, and 10 μm sagittal cryosections were prepared for staining with FBBBE and FBn. At this age, the mice undergo extensive neuronal development and remodeling. Such activity has been associated with higher levels of neurotransmitter activity and ROS in both neurons and microglial cells in the brain. Consistent with the previous experiments, the sections were either incubated with PBS (unstimulated) or H2O2 (FIG. 6). […]

[4] = cited from earlier work

Structure (SMILES) | solubility in aqueous buffer [1] | increase in fluorescence in response to excess H2O2 (fluorescence turn-on) [2] | change of emission on treatment with H2O2 [2] | relation of relative emission to H2O2 concentration [2] | fluorescence in cells treated with PBS, LPS or H2O2 (RAW 264.7 cells) | fluorescence turn-on in brain tissue (mouse brain) | also measured
CC1(C)OB(c2ccc(COc3ccc4ccc(=O)oc4c3)cc2)OC1(C)C [CBBE, 7-((4-(4,4,5,5-tetramethyl-1,3,2-dioxaborolan-2-yl)benzyl)oxy)-2H-chromen-2-one] | quite soluble | 57 fold | quickly turned on | linear correlation |  |  | 
O=c1ccc2ccc(OCc3ccccc3)cc2o1 [CBn, 7-(benzyloxy)-2H-chromen-2-one, reference compound] |  |  | no change |  |  |  | 
CC1(C)OB(c2ccc(COc3ccc4c(c3)Oc3cc(OCc5ccc(B6OC(C)(C)C(C)(C)O6)cc5)ccc3C43OC(=O)c4ccccc43)cc2)OC1(C)C [FBBBE, 3′,6′-bis((4-(4,4,5,5-tetramethyl-1,3,2-dioxaborolan-2-yl)benzyl)oxy)-3H-spiro[isobenzofuran-1,9′-xanthen]-3-one] | quite soluble | 52 fold | large increase in fluorescence | linear correlation | observed in all cells | sufficient to activate the probe | fluorescence in spinal cord tissue with exogenous H2O2 (mouse spinal cord; 100 μM H2O2, compared to brain tissue): minimal amount of fluorescence; probe activation in unstimulated spinal cord tissue (mouse spinal cord; PBS): essentially inactive; mean fluorescence, PBS or H2O2 vs LPS treated cells (RAW 264.7 cells; 50 μM probe, 1 μg/mL LPS 24 h, p<0.001): statistically different; mean fluorescence, PBS vs H2O2 treated cells (RAW 264.7 cells; 50 μM probe, 100 μM H2O2 1 h): not statistically different; sensitivity to other ROS (OCl-) compared to H2O2 [3]: less sensitive; effect of exogenous H2O2 on fluorescence in brain tissue (mouse brain; 50 μM probe, 100 μM H2O2 vs PBS): did not alter the fluorescence levels observed
O=C1OC2(c3ccc(OCc4ccccc4)cc3Oc3cc(OCc4ccccc4)ccc32)c2ccccc21 [FBn, 3′,6′-bis(benzyloxy)-3H-spiro[isobenzofuran-1,9′-xanthen]-3-one, reference compound] |  |  | does not show any changes |  | no turn on of fluorescence in any of the cells | no fluorescence turn on was observed | 
O=C1OC2(c3ccc(O)cc3Oc3cc(O)ccc32)c2ccccc21 [Fluorescein] |  |  |  |  |  |  | water solubility [4]: excellent water solubility
